Measured values taken from US9366676B2, “Fluorescent chemical compounds having high selectivity for double stranded DNA, and methods for their use” (LIFE TECHNOLOGIES CORPORATION, priority 2005, dated 2016).

Key:
[1] = system: Jurkat cells (human T-lymphocyte); test: Flow cytometry cell cycle staining, live Jurkat cells; format: cell-based; details: 5 μM, 37° C., 60 minutes, ModFit
Procedure: Live Jurkat cells (human T-lymphocyte) were suspended at 1×10^6 cells/ml in RPMI media with 10% Fetal Bovine Serum (FBS). 5 μM Compound (20) was added to one mL cell suspension, and incubated at 37° C. for 60 minutes protected from light. Cells were processed using a Becton Dickinson (BD) LSRII Flow Cytometer. A Forward Scatter (FS) vs Side Scatter (SS) dual parameter plot was used to gate main cell population. On gated cells, a dual-parameter plot of Fluorescence-Width vs Fluorescence-Area was used for single cell discrimination gating. Single color fluorescence was collected at 530/30 bandpass using the 488 nm excitation laser, collecting 30,000 events at flow rate of about 200 events/second. The data was further analyzed using ModFit LT Flow Cytometry Modeling Software from Verity Software House, Inc. to determine the ratio of G2/G1 and the CV of G1 phase.

[2] = system: calf thymus double stranded DNA and ribosomal RNA; test: Determination of DNA/RNA fluorescence ratios; format: binding; details: for DNA/RNA (fluorescence ratio): 65 ug/mL calf thymus dsDNA vs 65 ug/mL ribosomal RNA, 10 mM Tris, 1 mM EDTA pH 7.5, ratio of 1 = no selectivity; for ex/em: emission: emission value, second number of ex/em cell; for ex/em: excitation: excitation value, first number of ex/em cell
Procedure: The tested compound was dissolved as a stock solution in DMSO at a concentration of about 0.1-1.0 mg/mL. The exact concentration is not critical. Three tubes are prepared, each containing the same 1-20 uL of stock solution. The first tube contained 10 mM Tris, 1 mM EDTA (pH 7.5) buffer; the second tube contained buffer and 65 ug/mL calf thymus double stranded DNA; and the third tube contained buffer and 65 ug/mL ribosomal RNA. The tubes were incubated at room temperature for 10-15 minutes with protection from light.
In some cases, it was necessary to dilute the sample to keep the fluorescence signal on-scale. In these cases, all three samples were diluted to the same degree. The ratio of the fluorescence of the compound in the presence of DNA and RNA was determined.
The following compounds were selected as representative of the inventive class of compounds. The fluorescence values in the presence of DNA and RNA were determined as described in the previous Example. […] A ratio of 1 would indicate no selectivity. Excitation and emission values are in nm

[3] = system: Jurkat cells; test: Flow cytometry with induced apoptosis cells (apoptosis time course); format: cell-based, human
Procedure: Live Jurkat cells were split into 13 samples and each cell split was suspended in complete RMPI/10% FBS. Samples was treated with 10 μM Camptothecin in DMSO to induce apoptosis, or treated with DMSO alone to act as a control. Treatment and control time was 1, 2, 3, 4, 5, and 6 hours, and a time zero point. The cell suspensions were then incubated at 37° C./5% CO2 for a designated time. This type of experiment is sometimes called an “apoptosis time course”. Each split was washed once in complete RPMI media/10% Fetal Bovine Serum (FBS) and resuspended at 1×10^6 cells/mL in complete RPMI media with 10% FBS. […] A SYTOX® Blue stain vs compound (24) stain plot was made and a gate was made on compound (24) stain positive and SYTOX® Blue stain negative cells to gate out dead cells, and to ensure only live cells were analyzed. Fluorescence from the SYTOX® Blue stain was collected using 405 nm excitation laser with 450/50 bandpass and compound (24) stain fluorescence was collected at 585/42 bandpass using the 488 nm excitation laser as well as collected at the same 585/42 bandpass using the 532 nm excitation laser. […] The data was further analyzed using ModFit LT Flow Cytometry Modeling Software from Verity Software House, Inc. to look at ratio of G2/G1 and the CV of G1 phase and the percent sub-G0 population (apoptotic population).

[4] = system: double stranded DNA; details: cited from earlier work
[5] = system: DNA; details: cited from earlier work

SMILES | ex/em: emission [2] | ex/em: excitation [2] | DNA/RNA (fluorescence ratio) [2] | also measured
COc1cccc(OC)c1-c1ccc2c(c1)sc(C=C1C=C(N3CCN(C)CC3)N(Cc3ccccc3)c3ccccc31)[n+]2C [Compound 20] | 536 nm | 510 nm | 4 | G1-phase ([1]; 488 nm excitation, 530/30 bandpass): 47.08%; G2-phase [1]: 6.25%; G2/G1 ratio [1]: 1.83; S-phase [1]: 46.67%
COc1cccc(OC)c1-c1ccc2c(c1)sc(C=C1C=C(SCCN(C)C)N(Cc3ccccc3)c3ccccc31)[n+]2C [Compound 24] | 570 nm | 520 nm | 4.6 | staining of sub-G0 (apoptotic) population ([3]; 10 μM, 37° C., 30 minutes, live Jurkat treated with 10 μM Camptothecin, 488 nm or 532 nm excitation): stains live cells for identification of a sub-G0 population in apoptotic cells which increases with time of induction; excitation maximum ([2]; Example 114): 520 nm; emission maximum ([2]; Example 114 (orange)): 569 nm
CN(C)CCCN(CCCN(C)C)c1cc(C=C2Sc3ccccc3N2C)c2ccccc2[n+]1-c1ccccc1 [PicoGreen] |  |  |  | fluorescence enhancement upon binding to double stranded DNA [4]: greater than 1000 fold
CCCN(CCCN(C)C)c1cc(/C=C2/Sc3ccccc3N2C)c2ccccc2[n+]1-c1ccccc1 [SYBR Green I] |  |  |  | fluorescence enhancement upon binding to DNA, relative to ethidium bromide [5]: at least 10 fold; fluorescence quantum yield [5]: about 0.8
COc1cccc(OC)c1-c1ccc2c(c1)sc(C=C1C=C(n3ccnc3)N(Cc3ccccc3)c3ccccc31)[n+]2C [Compound 19] | 553 nm | 525 nm | 7.3 | 
CC[C@@]1(O)C(=O)OCc2c1cc1n(c2=O)Cc2cc3ccccc3nc2-1 [Camptothecin, reference compound] |  |  |  | induction time at which sub-G0 population begins to show ([3]; 10 μM Camptothecin in DMSO, live Jurkat, time course 0-6 hours): 3 h
CNCCN(C)C1=CC(=Cc2sc3cc(-c4c(OC)cccc4OC)ccc3[n+]2C)c2ccccc2N1Cc1ccccc1 [Compound 22] | 534 nm | 505 nm | 4.7 | 

Now from value to compound, other results behind:

ex/em: emission [2] | ex/em: excitation [2] | SMILES | DNA/RNA (fluorescence ratio) [2] | also measured
545 nm | 515 nm | COc1cccc(OC)c1-c1ccc2c(c1)sc(C=C1C=CN(Cc3cc[n+](C)cc3)c3ccccc31)[n+]2C [Compound 56] | 3.7 | 
591 nm | 550 nm | C[n+]1c(C=C2C=CN(Cc3ccccc3)c3ccccc32)sc2cc(-c3cc4ccccc4s3)ccc21 [Compound 95] | 1.9 | 
542 nm | 520 nm | COc1cccc(OC)c1-c1ccc2c(c1)sc(C=C1C=CN(Cc3ccc(C[N+](C)(C)CCC[N+](C)(C)C)cc3)c3ccccc31)[n+]2C [Compound 49] | 18 | 
527 nm | 503 nm | CCCN(CCCN(C)C)C1=CC(=Cc2sc3cc(C(COC)COC)ccc3[n+]2C)c2ccccc2N1Cc1ccccc1 [Compound 101] | 3 | 
534 nm | 511 nm | C[n+]1cccc(-c2ccc3c(c2)sc(C=C2C=CN(Cc4ccccc4)c4ccccc42)[n+]3C)c1 [Compound 99] | 1.3 | 
536 nm | 507 nm | CCCN(CCCN(C)C)C1=CC(=Cc2sc3cc(-c4c(OC)cccc4OC)ccc3[n+]2C)c2cc(OC)ccc2N1Cc1ccccc1 [Compound 39] | 6.1 | 
